Consider one molecule from US8017611B2, “Pyridine and pyrazine derivatives -083” (AstraZeneca AB, priority 2007, dated 2011).

Read-outs that look alike come from different tables or passages of the source.

The assay deals with T1, cMet expressed on MKN45 cells (Homo sapiens, UniProt P08581).
T1 construct: endogenous in cells; host or cells: MKN45
The experiment in a line: Cellular c-Met inhibition assay, Test (d). Type of assay: cell-based. The text has this:
These and other assays can be used to indicate the ability of a test compound to inhibit c-Met mediated cellular signalling in mammalian cell lines, for example the human tumour cell line MKN45. This is achieved by measuring the amount of phosphorylated c-Met within a cell following compound treatment.
MKN45 cells were routinely passaged in DMEM (Gibco BRL, product number 41966-029) plus 10% foetal calf serum (FCS), 1% L-glutamine (Gibco BRL, product number 25030024), to a confluence not greater than 85%. To undertake the assay, MKN45 cells were seeded at 2×10^4 cells/well in DMEM plus 0.5% foetal calf serum, 1% L-glutamine in 96 well plates (Costar, product number 3904) and incubated at 37° C. (+5% CO2) in a humidified incubator. Once the cells had fully adhered (typically following overnight incubation) plates were dosed with 25 μl compound (diluted from 10 mM stock in DMSO using serum free DMEM) and the plates were returned to a humidified 37° C. (+5% CO2) incubator for one hour. Following incubation the cells were fixed by adding formaldehyde (4% final concentration) and incubating at room temperature for 20 minutes. […] The plates were read using an Arrayscan II (Cellomics). […]

T1 sequence (P08581 25-1390): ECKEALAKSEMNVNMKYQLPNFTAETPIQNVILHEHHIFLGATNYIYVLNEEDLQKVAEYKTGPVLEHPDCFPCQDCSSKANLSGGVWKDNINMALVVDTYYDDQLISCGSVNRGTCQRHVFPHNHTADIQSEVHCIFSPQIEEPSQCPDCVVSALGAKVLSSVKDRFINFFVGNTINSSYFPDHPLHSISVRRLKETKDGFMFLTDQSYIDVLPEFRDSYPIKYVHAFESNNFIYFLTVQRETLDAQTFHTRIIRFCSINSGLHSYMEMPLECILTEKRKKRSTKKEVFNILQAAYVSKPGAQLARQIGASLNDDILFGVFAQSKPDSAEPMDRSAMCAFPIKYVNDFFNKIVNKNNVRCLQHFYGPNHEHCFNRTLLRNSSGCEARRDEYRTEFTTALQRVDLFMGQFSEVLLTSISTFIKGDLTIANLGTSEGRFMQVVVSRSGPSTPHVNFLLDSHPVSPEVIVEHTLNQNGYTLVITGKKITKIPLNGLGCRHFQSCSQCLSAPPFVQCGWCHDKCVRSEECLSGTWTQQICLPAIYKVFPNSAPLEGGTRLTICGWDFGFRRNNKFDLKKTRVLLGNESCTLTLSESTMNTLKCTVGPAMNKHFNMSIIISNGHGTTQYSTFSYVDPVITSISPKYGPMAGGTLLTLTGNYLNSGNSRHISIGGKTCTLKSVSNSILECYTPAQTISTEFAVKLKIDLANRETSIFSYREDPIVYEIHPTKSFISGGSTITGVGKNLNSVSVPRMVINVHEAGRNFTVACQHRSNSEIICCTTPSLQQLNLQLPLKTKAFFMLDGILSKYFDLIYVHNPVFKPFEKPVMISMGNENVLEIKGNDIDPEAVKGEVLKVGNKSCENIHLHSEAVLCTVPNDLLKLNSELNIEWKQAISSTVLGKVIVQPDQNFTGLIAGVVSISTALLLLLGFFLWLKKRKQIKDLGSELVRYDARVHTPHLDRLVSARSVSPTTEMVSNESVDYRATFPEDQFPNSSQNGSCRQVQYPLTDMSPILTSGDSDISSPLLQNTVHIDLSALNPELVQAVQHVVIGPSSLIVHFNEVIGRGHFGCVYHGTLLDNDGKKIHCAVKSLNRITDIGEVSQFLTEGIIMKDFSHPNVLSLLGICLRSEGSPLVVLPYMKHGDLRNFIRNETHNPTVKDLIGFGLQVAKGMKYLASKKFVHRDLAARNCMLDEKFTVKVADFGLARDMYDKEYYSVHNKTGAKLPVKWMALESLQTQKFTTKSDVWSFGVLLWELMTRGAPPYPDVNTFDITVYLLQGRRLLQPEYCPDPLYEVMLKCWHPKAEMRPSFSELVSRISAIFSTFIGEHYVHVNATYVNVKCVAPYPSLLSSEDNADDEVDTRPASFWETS

On to `CN1CCC(n2cc(-c3cnc(N)c(-c4nc5ccc(F)cc5o4)c3)cn2)CC1` [Example 7.2], for which the IC50 by setting is: (MKN45 cells, read-out: IC50 versus cellular phospho-c-Met (pYpYpY1230/4/5)) around 590 nM; (later recalculated, read-out: IC50 versus cellular phospho-c-Met (pYpYpY1230/4/5), mean recalculated from a larger number of replicates) 950 nM.
